What is called pKi is the Ki on a negative log10 scale, so that one unit is a factor of ten.

pKi: −log10 of the molar value.

The target of this test is T1, rat mGluR5 receptors (Rattus norvegicus, UniProt P31424).
T1 construct: rat cerebro-cortical membrane preparation was used; from tissue; host or cells: rat cerebral cortex membranes
T1 sequence (P31424 21-1203): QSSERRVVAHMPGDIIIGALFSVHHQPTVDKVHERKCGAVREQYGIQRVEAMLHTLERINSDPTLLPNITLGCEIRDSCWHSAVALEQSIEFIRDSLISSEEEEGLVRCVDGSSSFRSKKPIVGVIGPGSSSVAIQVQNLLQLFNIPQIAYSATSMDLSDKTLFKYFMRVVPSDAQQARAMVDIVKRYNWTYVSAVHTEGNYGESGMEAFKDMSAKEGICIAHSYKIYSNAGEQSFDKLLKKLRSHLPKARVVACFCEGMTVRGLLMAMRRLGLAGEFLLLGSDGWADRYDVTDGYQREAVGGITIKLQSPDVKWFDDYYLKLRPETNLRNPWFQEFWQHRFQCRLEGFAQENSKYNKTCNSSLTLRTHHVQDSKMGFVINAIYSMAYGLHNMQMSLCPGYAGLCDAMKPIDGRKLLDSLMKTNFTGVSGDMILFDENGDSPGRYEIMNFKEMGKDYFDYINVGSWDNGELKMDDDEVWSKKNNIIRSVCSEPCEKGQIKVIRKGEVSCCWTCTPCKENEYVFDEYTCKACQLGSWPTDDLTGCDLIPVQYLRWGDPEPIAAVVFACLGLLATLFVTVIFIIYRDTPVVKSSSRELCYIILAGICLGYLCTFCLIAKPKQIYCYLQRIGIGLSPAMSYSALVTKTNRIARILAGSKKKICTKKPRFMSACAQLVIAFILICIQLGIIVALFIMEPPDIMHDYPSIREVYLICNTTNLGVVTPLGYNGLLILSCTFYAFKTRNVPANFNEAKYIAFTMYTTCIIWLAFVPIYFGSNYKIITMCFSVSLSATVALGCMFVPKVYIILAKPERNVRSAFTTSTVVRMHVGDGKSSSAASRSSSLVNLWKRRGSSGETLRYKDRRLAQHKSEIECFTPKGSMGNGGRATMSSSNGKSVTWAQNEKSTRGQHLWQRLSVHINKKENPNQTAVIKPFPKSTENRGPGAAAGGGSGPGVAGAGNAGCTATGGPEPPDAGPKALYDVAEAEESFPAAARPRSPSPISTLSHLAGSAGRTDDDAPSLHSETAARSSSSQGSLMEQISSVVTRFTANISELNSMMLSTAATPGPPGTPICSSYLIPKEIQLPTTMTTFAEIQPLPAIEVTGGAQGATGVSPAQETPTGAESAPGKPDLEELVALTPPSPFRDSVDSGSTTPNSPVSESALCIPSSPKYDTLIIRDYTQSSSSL
The test is described as follows: mGluR5 receptor binding test, rat cerebro-cortical membrane preparation, [3H]-M-MPEP. As to conditions: affinity for rat mGluR5 receptors; [3H]-M-MPEP (2 nM) radioligand. The protocol: The mGluR5 receptor binding was determined according to the modified method of Gasparini et. al. (Bioorg. Med. Chem. Lett., 2000, 12, 407). Based on the high homology between the human and rat mGluR5 receptors, rat cerebro-cortical membrane preparation was used to determine the binding characteristics of the reference compounds and novel compounds to the rat mGluR5. The A18 cell line expressing hmGluR5a (purchased from Euroscreen) was used to determine binding characteristics of the chemical compounds to the human mGluR5a receptor. [^3H]-M-MPEP (2 nM) was used as radioligand. The nonspecific binding was determined in the presence of 10 μM M-MPEP.
In the case of `O=S(=O)(c1cc(F)cc(F)c1)c1cnc2cc(Cl)ccc2c1N1CCC(CO)CC1` [Compound 351], the negative logarithm of the Ki (pKi) is 6.30 to 6.70. For `Cc1ccc(S(=O)(=O)c2cnc3cc(Cl)ccc3c2N2CCC(C)CC2)cc1C` [Compound 199], the negative-log Ki (pKi) is above 6.70. `O=S(=O)(c1ccc(F)c(Cl)c1)c1cnc2cc(Cl)ccc2c1N1CCOCC1` [Compound 334] had a pKi above 6.70. In the case of `CC1CCN(c2c(S(=O)(=O)c3ccc(F)c(F)c3)cnc3ccc(Cl)cc23)CC1` [Compound 222], the pKi is 6.30 to 6.70. In the case of `CC1CCN(c2c(S(=O)(=O)c3ccc(F)c(F)c3)cnc3cc(Cl)ccc23)CC1` [Compound 206] it was above 6.70; in that of `Cc1ccc2ncc(S(=O)(=O)c3ccc(Cl)c(Cl)c3)c(N3CCOCC3)c2c1` [Compound 262], 6.30 to 6.70; in that of `Cc1ccc(S(=O)(=O)c2cnc3c(F)cccc3c2N2CCC(C)CC2)cc1F` [Compound 233], above 6.70. Molecule `CCc1ccc2ncc(S(=O)(=O)c3ccc(OC)cc3)c(N3CCC(C)CC3)c2c1` [Compound 51] gave a negative logarithm of the Ki (pKi) above 6.70. As to `O=S(=O)(c1ccccc1)c1cnc2cc(Cl)ccc2c1N1CCOCC1` [Compound 323], the pKi is below 6.30. Turning to `Cc1ccc(S(=O)(=O)c2cnc3ccccc3c2N2CCCCCC2)cc1` [Compound 32], the pKi was above 6.70. The molecule `Cc1ccc(S(=O)(=O)c2cnc3cc(F)ccc3c2N2CCC(C)CC2)cc1Cl` [Compound 181] showed a pKi above 6.70.

Regarding `COc1ccc(S(=O)(=O)c2cnc3cc(Cl)ccc3c2N2CCC(C)CC2)cc1Cl` [Compound 200], the negative-log Ki (pKi) is above 6.70. Molecule `O=S(=O)(c1ccc(Cl)c(Cl)c1)c1cnc2cc(F)ccc2c1N1CCOCC1` [Compound 316] had a pKi above 6.70. In the case of `COc1ccc2ncc(S(=O)(=O)c3cc(Cl)cc(Cl)c3)c(N3CCOCC3)c2c1` [Compound 271] it was below 6.30; in that of `COc1cccc(S(=O)(=O)c2cnc3ccc(F)cc3c2N2CCC(C)CC2)c1` [Compound 145], above 6.70; in that of `O=S(=O)(c1ccc(Cl)cc1)c1cnc2ccc(F)cc2c1N1CCOCC1` [Compound 120], below 6.30. In the case of `Cc1ccc(Nc2c(S(=O)(=O)c3ccc(Cl)cc3)cnc3ccccc23)cc1C` [Compound 22] it was below 6.30; in that of `Cc1ccc(S(=O)(=O)c2cnc3ccc(C)cc3c2N2CCN(Cc3ccccc3)CC2)cc1` [Compound 65], below 6.30; in that of `COc1ccc(S(=O)(=O)c2cnc3ccc(F)cc3c2N2CCC(C)CC2)cc1Cl` [Compound 147], above 6.70.

`O=S(=O)(c1ccc(Cl)cc1)c1cnc2ccc(F)cc2c1N1CCC(F)(F)CC1` [Compound 348] gave a pKi of 6.30 to 6.70. `O=S(=O)(c1cc(Cl)cc(Cl)c1)c1cnc2ccc(F)cc2c1N1CCOCC1` [Compound 280] had a pKi below 6.30. In the case of `CCOC(=O)C1CCN(c2c(S(=O)(=O)c3ccc(C)cc3)cnc3ccccc23)CC1` [Compound 54] it was below 6.30; in that of `O=S(=O)(c1ccc(F)c(F)c1)c1cnc2cc(Cl)ccc2c1N1CCOCC1` [Compound 331], below 6.30; in that of `CC1CCN(c2c(S(=O)(=O)c3ccc(F)c(Cl)c3)cnc3cc(F)ccc23)CC1` [Compound 187], above 6.70. Turning to `Cc1ccc(S(=O)(=O)c2cnc3ccc(Cl)cc3c2N2CCOCC2)cc1C` [Compound 38], the negative-log Ki (pKi) is below 6.30. Then `Cc1ccc2ncc(S(=O)(=O)c3ccc(C)c(Cl)c3)c(N3CCC(C)CC3)c2c1` [Compound 167], with above 6.70; and `COc1ccc2ncc(S(=O)(=O)c3cccc(C#N)c3)c(N3CCOCC3)c2c1` [Compound 273], with below 6.30; and `COc1cccc(S(=O)(=O)c2cnc3ccc(F)cc3c2N2CCOCC2)c1` [Compound 283], with below 6.30. In the case of `Cc1ccc2ncc(S(=O)(=O)c3cccc(Cl)c3)c(N3CCOCC3)c2c1` [Compound 263] it was below 6.30; in that of `CCOC(=O)C1CCCN(c2c(S(=O)(=O)c3ccc(C)cc3)cnc3ccc(OC)cc23)C1` (stereo not drawn) [Compound 58], below 6.30; in that of `CC1CCN(c2c(S(=O)(=O)c3ccc(F)c(Cl)c3)cnc3cc(Cl)ccc23)CC1` [Compound 207], above 6.70. Take `Cc1ccc(S(=O)(=O)c2cnc3cc(F)ccc3c2N2CCC(C)CC2)cc1` [Compound 171]: the pKi was above 6.70. Turning to `O=S(=O)(c1ccc(Cl)c(Cl)c1)c1cnc2cc(Cl)ccc2c1N1CCOCC1` [Compound 332], the pKi was above 6.70. In turn, `COc1ccc(S(=O)(=O)c2cnc3cc(Cl)ccc3c2N2CCC(C)CC2)cc1` [Compound 193] had a pKi of 6.30 to 6.70.

With `Cc1ccc(S(=O)(=O)c2cnc3ccc(F)cc3c2N2CCC(C)CC2)cc1` [Compound 14], the pKi was 6.30 to 6.70. Molecule `Cc1ccc(S(=O)(=O)c2cnc3cc(F)ccc3c2N2CCOCC2)cc1` [Compound 303] had a pKi below 6.30.

As to `Cc1ccc(S(=O)(=O)c2cnc3cc(F)ccc3c2N2CCC(C)CC2)cc1C` [Compound 183], the negative-log Ki (pKi) is above 6.70. On to `COc1ccc2ncc(S(=O)(=O)c3ccc(Cl)c(Cl)c3)c(N3CCC(C)CC3)c2c1` [Compound 249], for which the pKi is above 6.70. Take `Cc1ccc(Nc2c(S(=O)(=O)c3ccc(C)cc3)cnc3ccccc23)cc1` [Compound 21]: the negative-log Ki (pKi) was below 6.30. Then `CC1CCN(c2c(S(=O)(=O)c3ccc(Cl)cc3)cnc3ccc(F)cc23)CC1` [Compound 137], with above 6.70. In the case of `O=S(=O)(c1ccc(F)cc1)c1cnc2c(F)cccc2c1N1CCOCC1` [Compound 337] it was below 6.30. Then `Cc1ccc2ncc(S(=O)(=O)c3ccccc3)c(N3CCN(Cc4ccccc4)CC3)c2c1` [Compound 90], with below 6.30; and `Cc1ccc(S(=O)(=O)c2cnc3ccc(Cl)cc3c2N2CCC(C)CC2)cc1` [Compound 211], with above 6.70; and `CC1CCN(c2c(S(=O)(=O)c3cccc(F)c3)cnc3ccc(F)cc23)CC1` [Compound 144], with 6.30 to 6.70. In the case of `Cc1ccc2ncc(S(=O)(=O)c3ccc(F)cc3)c(N3CCC(C)CC3)c2c1` [Compound 156], the negative logarithm of the Ki (pKi) is above 6.70. `CC1CCN(c2c(S(=O)(=O)c3cccc(Cl)c3)cnc3cc(Cl)ccc23)CC1` [Compound 201]: the pKi was above 6.70. The molecule `CC1CCN(c2c(S(=O)(=O)c3ccccc3)cnc3ccccc23)CC1` [Compound 47] showed a pKi above 6.70. `CC1CCN(c2c(S(=O)(=O)c3cccc(C#N)c3)cnc3cc(F)ccc23)CC1` [Compound 179]: the pKi is above 6.70.

The molecule `Cc1ccc2ncc(S(=O)(=O)c3ccc(Cl)cc3)c(N3CCOCC3)c2c1` [Compound 39] showed a pKi below 6.30. `Cc1ccc2ncc(S(=O)(=O)c3ccc(Cl)cc3)c(N3CCC(C)CC3)c2c1` [Compound 158] had a negative-log Ki (pKi) of 6.30 to 6.70. The molecule `COc1ccc(S(=O)(=O)c2cnc3cc(F)ccc3c2N2CCC(C)CC2)cc1` [Compound 185] had a pKi above 6.70. In the case of `Cc1ccc(S(=O)(=O)c2cnc3cc4c(cc3c2N2CCC(C)CC2)OCCO4)cc1` [Compound 92] it was below 6.30; in that of `CCc1ccc2ncc(S(=O)(=O)c3ccc(Cl)cc3)c(NCc3ccc(C)cc3)c2c1` [Compound 30], below 6.30; in that of `CC1CCN(c2c(S(=O)(=O)c3ccc(C#N)cc3)cnc3ccc(Cl)cc23)CC1` [Compound 218], below 6.30.

In turn, `O=S(=O)(c1ccc(F)cc1)c1cnc2cc(Cl)ccc2c1N1CCOCC1` [Compound 321] showed a pKi below 6.30.

In the case of `Cc1ccc2ncc(S(=O)(=O)c3ccc(C)c(C)c3)c(N3CCC(C)CC3)c2c1` [Compound 161], the negative-log Ki (pKi) was above 6.70.

Regarding `O=S(=O)(c1ccc(F)c(Cl)c1)c1cnc2ccc(Cl)cc2c1N1CCOCC1` [Compound 302], the pKi is below 6.30. Then `Cc1ccc(S(=O)(=O)c2cnc3cc(Cl)ccc3c2N2CCOCC2)cc1C` [Compound 327], with above 6.70; and `COc1ccc(S(=O)(=O)c2cnc3cc(Cl)ccc3c2N2CCOCC2)cc1Cl` [Compound 330], with 6.30 to 6.70. The molecule `CC1CCN(c2c(S(=O)(=O)c3cc(Cl)cc(Cl)c3)cnc3c(F)cccc23)CC1` [Compound 226] showed a pKi above 6.70. Then `O=S(=O)(c1ccccc1)c1cnc2ccccc2c1N1CCC2(CC1)OCCO2` [Compound 60], with below 6.30; and `Cc1ccc2ncc(S(=O)(=O)c3ccc(C#N)cc3)c(N3CCC(C)CC3)c2c1` [Compound 166], with 6.30 to 6.70. On to `N#Cc1cccc(S(=O)(=O)c2cnc3cc(Cl)ccc3c2N2CCOCC2)c1` [Compound 320], for which the negative logarithm of the Ki (pKi) was 6.30 to 6.70.

`Cc1ccc(S(=O)(=O)c2cnc3ccc(C)cc3c2N2CCCCC2)cc1` [Compound 41] gave a negative logarithm of the Ki (pKi) below 6.30. As to `O=S(=O)(c1ccc(Cl)c(Cl)c1)c1cnc2c(F)cccc2c1N1CCOCC1` [Compound 345], the pKi is above 6.70. `CC1CCN(c2c(S(=O)(=O)c3ccc(F)cc3)cnc3cc(F)ccc23)CC1` [Compound 172]: the pKi was 6.30 to 6.70. Then `CCN(CC)c1c(S(=O)(=O)c2ccccc2)cnc2ccc(F)cc12` [Compound 124], with below 6.30; and `CCN(CC)c1c(S(=O)(=O)c2ccc(Cl)cc2)cnc2cc3c(cc12)OCCO3` [Compound 18], with below 6.30. Consider `CC1CCN(c2c(S(=O)(=O)c3ccc(Cl)cc3)cnc3cc(F)ccc23)CC1` [Compound 174], for which the pKi was above 6.70. As for `Cc1ccc(S(=O)(=O)c2cnc3ccccc3c2Nc2ccc(F)cc2)cc1` [Compound 25], the pKi was below 6.30. In turn, `CC1CCN(c2c(S(=O)(=O)c3cc(Cl)cc(Cl)c3)cnc3cc(F)ccc23)CC1` [Compound 177] had a pKi above 6.70. The molecule `COc1ccc2ncc(S(=O)(=O)c3ccc(Cl)cc3)c(N3CCOCC3)c2c1` [Compound 270] gave a pKi above 6.70.

The values above are taken from patent US20090270371A1, “QUINOLINE DERIVATIVES USEFUL IN THE TREATMENT OF MGLUR5 RECEPTOR-MEDIATED DISORDERS” (priority 2005, published 2009).
